In assay [1] the test system is Corn seeds (var. NK Falkone). The assay can be described thus: Corn seed germination under cold stress conditions. The format is in vivo. The settings on record: Zea mays, 15° C., 60% Relative Humidity; for change in vivo at 250 µM: read-out: increase of the slope of the curve at Tso (uniformity of germination) compared to untreated control; for percent reduction of T50 germination time vs untreated control at 250 µM: read-out: reduction of the Tso value (time taken for 50% germination; speed of germination) in comparison with untreated control. How it is done: Method: Corn seeds (var. NK Falkone, Syngenta Seeds SAS, St. Sauveur, France) were sorted by size using a sieve to eliminate round seeds. The corn seeds were placed in 24 well plates (1 seed per well, each plate was considered as one experimental unit or replicate). Germination was initiated by the addition of 250 μL of distilled water containing 0.5% DMSO per well (and the tested the substance at the given concentration). 8 replicates (i.e., 8 plates) were used for each treatment characterization. Plates were sealed using seal foil (Polyolefin Art. Nr. 900320) from HJ-BIOANALYTIK. All plates were placed in a climatic chamber at 15° C. with 60% Relative Humidity. The experiment was laid out in a completely randomized design.
Germination was followed over time by taking photographs at different time points. Image analysis was performed automatically with a macro which was developed using the Image J software. A kinetic analysis of germination was carried out by fitting a trend curve. Three parameters were calculated from the trend curve: the Tso (time taken for 50% germination; speed of germination); the slope of the curve (the uniformity of germination) and the plateau (the total percentage of germinated seeds).
The treatments with a given compound were performed at 4 concentrations 2, 10, 50, and 250 μM.

Assay [2] concerns Corn leaf discs (variety Multitop). The assay can be described thus: Dark induced senescence of corn leaf. The settings on record: Zea mays, foliar, 192 h; leaf discs in the dark, 23° C., 75% humidity, 8 days, 0.5% DMSO; read-out: IC50 (concentration at which 50% senescence was achieved). How it is done:
It is known that strigolactones regulate (accelerate) leaf senescence, potentially through D14 receptor signaling. It is also known that senescence is an important process allowing reallocation of nutrients. Compounds of formula (I) were tested in a corn leaf dark induced senescence assay and compared to untreated control.
Corn plants of variety Multitop were grown in a greenhouse with relative 75% humidity and at 23-25° C. for 6 weeks. 1.4 cm diameter leaf discs were placed into 24-well plates containing a test compounds in a concentration gradient (100 μM-0.0001 μM) at a final concentration of 0.5% DMSO. Each concentration was tested in 12 replicates. Plates were sealed with seal foil. The foil was pierced to provide gas exchange in each well. The plates were placed into the completely dark climatic chamber. Plates were incubated in the chamber with 75% humidity and at 23° C. for 8 days. On days 0, 5, 6, 7 and 8 photographs were taken of each plate, and image analysis conducted with a macro developed using the ImageJ software. The image analysis was used to determine the concentration at which 50% senescence was achieved (IC50). The lower the value, the higher senescence induction potency.

Experimental findings from US20250261639A1, “ZEALACTONE DERIVATIVES AS PLANT GROWTH REGULATORS” (SYNGENTA CROP PROTECTION AG, priority 2020, published 2025) are described below.

For the compound `COC(=O)C(/C=C/C(C)(C)C(=O)OC)=C/OC1C=C(C)C(=O)O1` (centres unmarked) [Compound P-19, dimethyl (E,5E)-2,2-dimethyl-5-[(4-methyl-5-oxo-2H-furan-2-yl)oxymethylene]hex-3-enedioate], in assay [1], the change in vivo at 250 µM was greater than 50% and the percent reduction of T50 germination time vs untreated control at 250 µM is greater than 5%. In addition, the IC50 in assay [2] was less than 3000 nM.

Consider `COC(=O)C(/C=C/C1CCC(F)(F)CC1)=C/OC1C=C(C)C(=O)O1` (centres unmarked) [Compound P-2, methyl (E,2E)-4-(4,4-difluorocyclohexyl)-2-[(4-methyl-5-oxo-2H-furan-2-yl)oxymethylene]but-3-enoate], for which, in assay [1], the change in vivo at 250 µM was greater than 50% and the percent reduction of T50 germination time vs untreated control at 250 µM is greater than 5%. In addition, in assay [2], the IC50 was less than 3000 nM.

In the case of `COC(=O)C(/C=C/C(C)(C)N(C)C(C)=O)=C/OC1C=C(C)C(=O)O1` (centres unmarked) [Compound P-17, methyl (E,2E)-5-[acetyl(methyl)amino]-5-methyl-2-[(4-methyl-5-oxo-2H-furan-2-yl)oxymethylene]hex-3-enoate], in assay [2], the IC50 is less than 3000 nM.

As to `COC(=O)C(/C=C/C12CC3CC(CC(C3)C1)C2)=C/OC1C=C(C)C(=O)O1` (centres unmarked) [Compound P-4, methyl (E,2E)-4-(1-adamantyl)-2-[(4-methyl-5-oxo-2H-furan-2-yl)oxymethylene]but-3-enoate], the percent reduction of T50 germination time vs untreated control at 250 µM in assay [1] is greater than 5%. For the same compound, the IC50 in assay [2] was less than 3000 nM.

Turning to `COC(=O)C(/C=C/C(C)(C)OC)=C/OC1C=C(C)C(=O)O1` (centres unmarked) [Compound P-12, methyl (E,2E)-5-methoxy-5-methyl-2-[(4-methyl-5-oxo-2H-furan-2-yl)oxymethylene]hex-3-enoate], the change in vivo at 250 µM in assay [1] was greater than 50%. Moreover, the IC50 in assay [2] was less than 3000 nM.

Turning to `C=C(C)C1(/C=C/C(=C\OC2C=C(C)C(=O)O2)C(=O)OC)C(=O)CC1(C)C` (centres unmarked) [Compound P-15, methyl (E,2E)-4-(1-isopropenyl-2,2-dimethyl-4-oxo-cyclobutyl)-2-[(4-methyl-5-oxo-2H-furan-2-yl)oxymethylene]but-3-enoate], in assay [1], the change in vivo at 250 µM was greater than 50% and the percent reduction of T50 germination time vs untreated control at 250 µM is greater than 5%. Besides, the IC50 in assay [2] is less than 3000 nM.

Regarding `COC(=O)C(/C=C/C1CCCCC1)=C/OC1OC(=O)C(C)=C1C` (centres unmarked) [Compound P-3, methyl (E,2E)-4-cyclohexyl-2-[(3,4-dimethyl-5-oxo-2H-furan-2-yl)oxymethylene]but-3-enoate], in assay [1], the change in vivo at 250 µM was greater than 50% and the percent reduction of T50 germination time vs untreated control at 250 µM was greater than 5%.

As to `COC(=O)C(/C=C/C(C)(C)C#N)=C/OC1C=C(C)C(=O)O1` (centres unmarked) [Compound P-16, methyl (E,2E)-5-cyano-5-methyl-2-[(4-methyl-5-oxo-2H-furan-2-yl)oxymethylene]hex-3-enoate], in assay [2], the IC50 was less than 3000 nM.

Consider `COC(=O)/C(C=C(C)C)=C/OC1C=C(C)C(=O)O1` (centres unmarked) [Compound P-9, methyl (2E)-4-methyl-2-[(4-methyl-5-oxo-2H-furan-2-yl)oxymethylene]pent-3-enoate], for which, in assay [1], the change in vivo at 250 µM is greater than 50% and the percent reduction of T50 germination time vs untreated control at 250 µM was greater than 5%.

For `COC(=O)/C=C/C(=C\OC1C=C(C)C(=O)O1)C(=O)OC` (centres unmarked) [Compound P-8, dimethyl (E,4E)-4-[(4-methyl-5-oxo-2H-furan-2-yl)oxymethylene]pent-2-enedioate], in assay [1], the change in vivo at 250 µM was greater than 50% and the percent reduction of T50 germination time vs untreated control at 250 µM is greater than 5%. Further, the IC50 in assay [2] is less than 3000 nM.

Turning to `COC(=O)C(/C=C/C(C)(C)C(=O)N(C)C)=C/OC1C=C(C)C(=O)O1` (centres unmarked) [Compound P-20, methyl (E,2E)-6-(dimethylamino)-5,5-dimethyl-2-[(4-methyl-5-oxo-2H-furan-2-yl)oxymethylene]-6-oxo-hex-3-enoate], in assay [2], the IC50 was less than 3000 nM.

`COC(=O)C(/C=C/C(C)(C)C)=C/OC1OC(=O)C(C)=C1C` (centres unmarked) [Compound P-10, methyl (E,2E)-2-[(3,4-dimethyl-5-oxo-2H-furan-2-yl)oxymethylene]-5,5-dimethyl-hex-3-enoate]: in assay [1], the change in vivo at 250 µM is greater than 50% and the percent reduction of T50 germination time vs untreated control at 250 µM is greater than 5%.

With `COC(=O)C(/C=C/C1(C)CCCC1)=C/OC1C=C(C)C(=O)O1` (centres unmarked) [Compound P-6, methyl (E,2E)-4-(1-methylcyclopentyl)-2-[(4-methyl-5-oxo-2H-furan-2-yl)oxymethylene]but-3-enoate], in assay [1], the change in vivo at 250 µM was greater than 50% and the percent reduction of T50 germination time vs untreated control at 250 µM is greater than 5%. Also, the IC50 in assay [2] was less than 3000 nM.

For the compound `COC(=O)C(/C=C/C1(C)CC1)=C/OC1C=C(C)C(=O)O1` (centres unmarked) [Compound P-7, methyl (E,2E)-4-(1-methylcyclopropyl)-2-[(4-methyl-5-oxo-2H-furan-2-yl)oxymethylene]but-3-enoate], in assay [2], the IC50 is less than 3000 nM.
